Data on 2 compounds can be found in US9155790B2, “Methods and compositions for modulating ocular damage” (University of Lousiville Research Foundation, Inc., priority 2010, dated 2015).

The test system of experiment [1] is C57BL/6 mice. Put plainly: Laser-induced subretinal choroidal neovascularization (CNV) in mice. The experiment is classed as in vivo. The note with it: for CNV yield (percent of the spots with CNV): read 10 days after laser. The text has this: In order to test the efficacy of MIF inhibitors to prevent subretinal or intraretinal neovascularization, subretinal choroidal neovascularization (CNV) was induced in C57BL/6 mice (n=3; 6 eyes/per experimental group) using a double-frequency YAG laser (532 nm). Laser parameters were 600 mW of power, 0.1 sec duration, and a spot size of 50 micrometers. Approximately 8-12 spots per eye were placed. One group of animals received 500 micrograms of 4-(2-fluorophenyl)-6-iodopyrimidine (Compound 1) into the posterior subtenon space through a 32-G needle 24 hours before laser application. Compound 1 was dissolved in 1:1 mixture of DMSO and corn oil solvent. The injection volume was 5 microliters.
Another group of animals received the drug six days after the laser photocoagulation when subretinal neovascularization is at its maximum growth. This scenario exemplified the use of MIF inhibitors (including, but not limited to Compound 1) in the treatment of active wet age-related macular degeneration (AMD). The two […] controls received either PBS or DMSO:corn oil mixture into the subTenon space. MIF^−/− animals (i.e., mice with a homozygous knock out of the MIF gene) were also taken as the negative control.
Ten days after the laser photocoagulation animals were perfused with high molecular weight dextran (2 megadalton)-conjugated fluorescein under deep anesthesia and then sacrificed. Choroidal neovascularization (CNV) yield (=percent of the spots with CNV) was determined under a fluorescent microscope.
The effect of MIF neutralization on retinal pigment epithelial (RPE) differentiation and wound healing properties in animal models of chemical RPE debridement and laser-induced choroidal neovascularization (CNV) was tested. CNV was induced in C57BL/6 mice (n=18) using a double-frequency YAG laser (532 nm; 600 mW; 0.1 sec; 50 μm; 8-12 spots/eye). The experimental group (n=6) received 500 μg/in 5 μl of a MIF inhibitor (4-iodo-6-(2-fluorophenyl)pyrimidine; Compound 1) in the posterior subtenon space 24 hours before laser application. Ten (10) days later, animals were sacrificed and induced CNV (i.e., yield) was determined.
(§1) Another group of animals received MIF-inhibitor 6 days after laser treatment to determine the effect of MIF-neutralization on established CNV. RPE loss was also mimicked in twelve C57BL/6 mice by patchy debridement of RPE using intraperitoneal sodium iodate injection (25 mg/kg). Seven days later, animals received the subtenon MIF inhibitor and RPE resurfacing was determined on day 21 by morphometric image analysis. In all experiments, MIF^−/− animals and wild type animals that received the solvent (DMSO/Corn oil) and/or PBS were used as controls.

Experiment [2] concerns C57BL/6 mice. Put plainly: Sodium iodate chemical RPE debridement model of geographic atrophy. The experiment is classed as in vivo. The procedure:
as §1
Immunostaining for RPE65, vimentin, E-cadherin, and N-cadherin was used to identify and characterize RPE differentiation.
Sodium iodate was employed for chemical debridement of RPE to mimic geographic atrophy. Mice received NalO3 (25 mg/kg) intraperitoneally followed by subtenon injection of Compound 1 (500 μg in 5 μL) on day 7. Mice were sacrificed on Day 21 and the surface coverage by RPE cells was determined.

The test system of experiment [3] is C57BL/6 mice. Kind of experiment: Proliferative vitreoretinopathy (PVR) model, surgically induced retinal detachment in mice. The format is in vivo. As to conditions: 500 μg in 5 μl subtenon on days 0 and 5; light microscopy day 10. Here is the method: The effect of MIF inhibition on EMT was further tested in vivo using an animal model of PVR. Six (6) adult C57BL/6 mice were anesthetized with pentobarbital sodium (70 mg/kg i.p.) and a linear incision was made in the cornea. The lens was removed and a tear was created in the peripheral retina using a 32G needle. The corneal incision was then sutured with 10-0 nylon.
The experimental group received 500 μg/in 5 μl of a MIF inhibitor (4-iodo-6-(2-fluorophenyl)pyrimidine; Compound 1) in the posterior subtenon space on Days 0 and 5, whereas control animals received the solvent. Animals were sacrificed on Day 10 and light microscopy was used to assess the presence and extent of PVR. MIF^−/− animals (n=3) were also used as control.
In order to test the safety and efficacy of MIF neutralization in vivo, the model disclosed in Saika et al., 2004 was employed.
Briefly, retinal detachment was created in three C57BL6 mice. Animals underwent a lensectomy/vitrectomy procedure under ketamine/xylazine anesthesia. These procedures were done through a central slit corneal incision. After the completion of the procedure, a tear was created in the peripheral retina under the microscope and the sensory retina was detached. Next, the cornea was closed with a 10-0 nylon suture and each animal was returned to its cage. […]

A further experiment has as its system Brown Norway rats. Kind of experiment: PVR / retinal detachment model in Brown Norway rats. The experiment is classed as in vivo. The procedure: Briefly, retinal detachment was created in three C57BL6 mice. Animals underwent a lensectomy/vitrectomy procedure under ketamine/xylazine anesthesia. These procedures were done through a central slit corneal incision. After the completion of the procedure, a tear was created in the peripheral retina under the microscope and the sensory retina was detached. Next, the cornea was closed with a 10-0 nylon suture and each animal was returned to its cage. The experimental group received 500 μg/in 5 μl of the MIF inhibitor 4-(2-fluorophenyl)-6-iodopyrimidine (Compound 1) in the posterior subtenon space on days 0 and 5, whereas control animals received the solvent (i.e., a 1:1 mixture of DMSO and corn oil). Animals were sacrificed on day 10 and light microscopy was used to assess the presence and extent of PVR. MIF^−/− knockout animals (n=3) were also used as a control.
Similar experiments were also repeated using Brown Norway rats. […] However, in control animals (FIG. 5 I) numerous RPE cells became migratory in the vitreous and started to form epiretinal membranes

A further experiment deals with primary human RPE cells. Put plainly: EMT of cultured primary human RPE cells (morphology and qPCR). The experiment is classed as cell-based. The procedure: To determine whether MIF inhibition can prevent the formation proliferative vitreoretinopathy (PVR) by inhibiting epithelio-mesenchymal transformation (EMT) of RPE, primary human RPE cells from two young donors were plated on tissue-culture plastic and maintained in DMEM H16 supplemented with 10% FBS and a MIF inhibitor (4-IPP; 25-50 μM) for 3 weeks. Control cells were exposed only to the solvent (DMSO/Corn oil).
Morphology and qPCR for microphthalmia transcription factor (MITF), plasminogen activator inhibitor type-1 (PAI-1), vimentin, and N-cadherin were used to assay for the presence of EMT.
Human RPE cells were isolated freshly (<24 hours) from human donor eyes. Harvested RPE cells were cultured on tissue-culture plates. 25 μM of 4-IPP, a small molecule antagonist of MIF, was added to the culture medium every other day. Untreated wells were taken as control. 21 days later, cells were photographed and RNA was isolated for qPCR analyses.
A general note: In qPCR the cycle at which signal appears reflects the starting amount.

[4] abbreviates: 25 μM every other day, 21 days, qPCR.
The mark [5] stands for this setting: 25-50 μM for 3 weeks, qPCR vs control.

Entries after “also recorded” stand apart in the source; their conditions may differ.

In the case of `Fc1ccccc1-c1cc(I)ncn1` [Compound 1, 4-(2-fluorophenyl)-6-iodopyrimidine], the “CNV yield (percent of the spots with CNV)” value with C57BL/6 mice [1] (500 μg in 5 μl posterior subtenon, 24 hours before laser (pre-laser)) is recorded as 10.7%; with C57BL/6 mice [1] (500 μg subtenon 6 days after laser (post-laser, established CNV)), 12.9%. In addition, the “RPE growth over the laser spot” value in the experiment on C57BL/6 mice [1] (histology / fluorescence microscopy of laser spots) is “RPE cells proliferated to cover the spot; also recorded: RPE proliferated over the laser spot and sealed it off from neovascularization; also recorded: proliferate over the laser spot and seal it off from neovascularization”. Also, the “occurrence of CNV (FIG. 1)” value with C57BL/6 mice [1] (post-laser application (5th bar)) and in the experiment with C57BL/6 mice [1] (pre-laser application (4th bar)) was “significantly suppressed the occurrence of CNV” throughout. Moreover, the “differentiation of proliferating RPE cells (immunostaining)” value in the experiment with C57BL/6 mice [2] (MIF-neutralized animals, RPE65, vimentin, E-cadherin, N-cadherin staining) was “maintained differentiated cuboidal morphology and expressed E-cadherin and RPE-65”. For the same compound, in the experiment on C57BL/6 mice [2] (NaIO3 25 mg/kg i.p., 500 μg in 5 μL subtenon on day 7, day 21), the “surface coverage by RPE cells vs vehicle (FIG. 7)” value was “statistically significant greater surface coverage”. Besides, the “surface coverage by RPE cells” value in the experiment on C57BL/6 mice [2] (sodium iodate 25 mg/kg i.p., subtenon MIF inhibitor on day 7, morphometric image analysis on day 21) is listed as 93.8±6.3%. The “RPE resurfacing of the denuded Bruch's membrane (FIGS. 8, 9)” value in the experiment with C57BL/6 mice [2] (three weeks after partial destruction of RPE cells, vs vehicle) was “proliferated at a higher rate, resurfaced the Bruch's membrane, and formed an epithelial monolayer; also recorded: better resurfacing of the denuded Bruch's membrane with RPE cells; also recorded: RPE cells established a monolayer in many places; also recorded: proliferated at a higher rate; resurfaced the Bruch's membrane and formed an epithelial monolayer”. In the experiment on C57BL/6 mice [2] (vs vehicle control mice, FIG. 10A), the “RPE cell proliferation (PCNA staining)” value is on record as “increased cell proliferation; also recorded: higher proliferation of the RPE cells”. Also, the “apoptotic cell death (TUNEL staining)” value in the experiment on C57BL/6 mice [2] (vs vehicle control mice, FIG. 10B) was “decreased apoptotic cell death”. In the experiment with C57BL/6 mice [3], the “RPE cell layering / morphology in the subretinal space” value was “remained as a monolayer; also recorded: maintained an epitheloid monolayer in the subretinal space”. Besides, the “formation / contraction of peri-retinal membranes (PVR)” value in the experiment on C57BL/6 mice [3] was “significantly inhibited the formation of peri-retinal membranes; also recorded: No physical distortion related with the contraction of periretinal membranes was noted”. In the experiment on Brown Norway rats (Brown Norway rats, FIG. 5H, vs control), the “RPE morphology and invasion of subretinal / intravitreal space” value was “maintained their epitheloid morphology and did not invade the subretinal and/or intravitreal space”. Besides, in the experiment with Brown Norway rats (FIG. 6A vs vehicle control FIG. 6B), the “preservation of photoreceptor cells in the detached retina” value is on record as “better preservation of the photoreceptor cells in the detached retina; also recorded: better preserved”. In addition, the “outer nuclear layer thickness” value in the experiment on Brown Norway rats (detached retina, FIG. 6A vs controls) is recorded as “thicker outer nuclear layer”.

For `Ic1cc(-c2ccccc2)ncn1` [Compound 4-IPP, 4-iodo-6-phenylpyrimidine], in the experiment on primary human RPE cells (setting [4]), the “MITF mRNA level, control lower than inhibitor-treated cells” value stood at 1.6 fold; the “N-cadherin mRNA level, control higher than inhibitor-treated cells” value worked out at 43.2 fold; the “PAI-1 mRNA level, control higher than inhibitor-treated cells” value is reported as 19.7 fold; the “vimentin mRNA level, control higher than inhibitor-treated cells” value is given as 8.5 fold. Besides, in the experiment on primary human RPE cells (25 μM every other day, 21 days, vs control wells), the “cell number and morphology of cultured human RPE cells (FIG. 4A)” value was “significantly fewer in number, were uniformly pigmented, retained a classical cuboidal epithelial morphology”. In addition, in the experiment with primary human RPE cells (setting [5]), the “increase in MITF mRNA level” value amounted to 1.6 ×, the “reduction of N-cadherin mRNA level” value turned out to be 43.2 ×, the “reduction of PAI-1 mRNA level” value is 19.7 × and the “reduction of vimentin mRNA level” value stood at 8.5 ×. For the same compound, in the experiment with primary human RPE cells (25-50 μM for 3 weeks, vs solvent control), the “cell number and morphology of cultured human RPE cells” value was “significantly fewer in number but maintained their typical cuboidal epithelial morphology”.
